We go through 6 molecules from PMC10352304 (2023).

*1 amine or outer side, *2 acyl side, *3 side chain or, on linkers, in order; H or OH if unused. Where a SMILES comes first, the peptide text is derived from it. Bridges are numbered along the chain shown (N, C = ends). Roman numbers before positions name the chains, in order. [ ]: non-standard residue; d: D form. Actinocin(9to1) = Cc1c2oc3c(C)ccc(C(=O)[*:1])c3nc-2c(C(=O)[*:2])c(N)c1=O; NMeV = CN[C@H](C(=O)O)C(C)C; Sar = CNCC(=O)O

Experiment [1] deals with CP (DNA, duplex) AGGTTGGTGAGTGATTGGAGGTT/AATCACTCACCAACCT
The experiment is described as follows: BIND strand displacement fluorescence. The conditions noted are these: none (no metal cations); 1x TE, 37 °C; 20 nM CP, 10 nM invader I.

Experiment [2] shares this test system. The experiment is described as follows: BIND strand displacement fluorescence, McGhee-von Hippel fit. The conditions noted are these: none (no metal cations), 1x TE, 37 °C, 20 nM CP, 10 nM invader I, per base.
The test system is the same in experiment [3]. Nature of the experiment: fluorescence turn-on. The conditions noted are these: 20 nM CP; site size 2.4; per base.
Experiment [4] deals with CP (C 28nt / P 21nt) (DNA, duplex) ACAAGAGGTTGGTGAGTGATTGGAGGTT/AATCACTCACCAACCTCTTGT
The experiment is described as follows: BIND strand displacement fluorescence. The conditions noted are these: none (no metal cations); 1x TE, 37 °C; critical binder concentration scales with duplex length.

Experiment [5] concerns CP (C 18nt / P 11nt) (DNA, duplex) GGTGAGTGATTGGAGGTT/AATCACTCACC
Nature of the experiment: BIND strand displacement fluorescence. The conditions noted are these: none (no metal cations); 1x TE, 37 °C; critical binder concentration scales with duplex length.

Experiment [6] concerns sink probe 5'-GCGCC-3' (DNA, hairpin) CGCGCGGCAAAAAGCCGCGCG
Nature of the experiment: competitive BIND, sink against CP. The conditions noted are these: none (no metal cations); 1x TE, 37 °C; sink in up to 100-fold excess over CP.

Experiment [7] concerns sink probe 5'-TAAAT-3' (DNA, hairpin) CGATTTACAAAAAGTAAATCG
The experiment is described as follows: competitive BIND, sink against CP. The conditions noted are these: none (no metal cations); 1x TE, 37 °C; sink in up to 100-fold excess over CP.

In experiment [8] the test system is CP (75% GC) (DNA, duplex) GGGCTACGCGATGCGCGGAGGTT/GCGCATCGCGTAGCCC
Nature of the experiment: BIND strand displacement fluorescence, McGhee-von Hippel fit. The conditions noted are these: none (no metal cations); 1x TE, 37 °C; 20 nM CP, 10 nM invader I; per base.

The test system of experiment [9] is CP (25% GC) (DNA, duplex) AATTCGATTAGCAATTGGAGGTT/AATTGCTAATCGAATT
Described as above. The conditions noted are these: none (no metal cations); 1x TE, 37 °C; 20 nM CP, 10 nM invader I; per base.

`[Ru+2].c1cnc2c(c1)ccc1cccnc12.c1cnc2c(c1)ccc1cccnc12.c1cnc2c(c1)ccc1cccnc12`: in experiment [1], the binding entry is on record as “weak”. One may read the Kd as a measure of binding affinity in units of concentration. Low readings indicate a tighter complex, high ones a looser complex. Molecule `CCN(CC)CCn1nc2c3c(cccc3c1=O)-c1ccccc1-2` had a Kd in [2] (site size 1.3) of 212 nM. Turning to `c1ccc(C[n+]2cccc3ccccc32)cc1`, in experiment [1], the binding result is given as “no”.

As to `CCCN(CCCN(C)C)c1cc(C=C2Sc3ccccc3N2C)c2ccccc2[n+]1-c1ccccc1`, the Kd is reported as 9.3 nM in experiment [3] and 7.0 nM in experiment [2] (site size 2.6, b11 prints 7.1 nM). The binding entry in experiment [4] and in [5] was “yes” each time. `Cn1cc(NC(=O)c2cc(NC(=O)CN=C(N)N)cn2C)cc1C(=O)NCCC(=N)N`: the binding entry in [6] was “no”. With `Cc1c2oc3c(C)ccc(C(=O)N[C@@H]4C(=O)N[C@H](C(C)C)C(=O)N5CCC[C@H]5C(=O)N(C)CC(=O)N(C)[C@@H](C(C)C)C(=O)O[C@@H]4C)c3nc-2c(C(=O)N[C@@H]2C(=O)N[C@H](C(C)C)C(=O)N3CCC[C@H]3C(=O)N(C)CC(=O)N(C)[C@@H](C(C)C)C(=O)O[C@@H]2C)c(N)c1=O` (I: T[dV]P[Sar][NMeV] / II: T[dV]P[Sar][NMeV]; ester I:1-I:C, II:1-II:C; linker I:N-II:N via Actinocin(9to1)), in experiment [7], the binding entry was “no”. The values for the Kd in [8] and in [9] were 83 nM and 983 nM, respectively.
